Results from patent US20260042764A1, “COMPOSITIONS AND METHODS FOR INHIBITION OF KRAS” (TheRas, Inc., priority 2022, published 2026).

Experiments:
[1] = target: T1, Avi-KRAS WT (1-169) GppNHp/RAF1 RBD-3xFLAG (52-151) (Homo sapiens, UniProt P01116); test: Raf1-KRAS WT-GppNHP disruption HTRF assay (Biological Example 1); format: binding
T1 construct: Avi-KRAS WT (1-169)
In short: (§1)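 HTRF PPI disruption; buffer 50 mM Tris pH 7.5, 100 mM NaCl, 5 mM MgCl2, 0.1% BSA, 0.01% Tween, 10% DMSO. Protein mix 1 h RT shaking, reagent mix 1 h RT shaking. Data as % activity vs DMSO (100%).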

[2] = target: T2, Avi-KRAS G12D (1-169) GppNHp/RAF1 RBD-3xFLAG (52-151) (Homo sapiens, UniProt P01116, G12D); test: Raf1-KRAS G12D-GppNHP disruption HTRF assay (Biological Example 1); format: binding
T2 construct: Avi-KRAS G12D (1-169)
In short: as §1

[3] = system: SW620 cells (KRAS G12V); test: Cell-based pERK HTRF assay in SW620 cell (Biological Example 4)
In short: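 Read-out: HTRF pERK signal (excitation 320 nm, emission 615 nm) from lysates of SW620 cells after 4 h compound exposure. Dose range was 9 points, half-log steps from 1 μM, in 0.25% DMSO; antibody incubation ran 4–24 h at room temperature.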

[4] = target: T3, Avi-KRAS G12V (1-169) GppNHp/RAF1 RBD-3xFLAG (52-151) (Homo sapiens, UniProt P01116, G12V); test: Raf1-KRAS G12V-GppNHP disruption HTRF assay (Biological Example 1); format: binding
T3 construct: Avi-KRAS G12V (1-169)
In short: as §1

[5] = target: T4, Avi-KRAS G12R (1-169) GppNHp/RAF1 RBD-3xFLAG (52-151) (Homo sapiens, UniProt P01116, G12R); test: Raf1-KRAS G12R-GppNHP disruption HTRF assay (Biological Example 1); format: binding
T4 construct: Avi-KRAS G12R (1-169)
In short: as §1

[6] = target: T5, Avi-KRAS G12V (2-169) GTP/RAF1 RBD-3xFLAG (51-131) (Homo sapiens, UniProt P01116, G12V); test: Raf1-KRAS G12V-GTP disruption HTRF assay (Biological Example 3); format: binding; conditions: KRAS G12V, GTP-loaded
T5 construct: Avi-KRAS G12V (2-169)
In short: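 HTRF PPI read-out (ex 320 nm, em 615 nm) after 1 h RT incubation with shaking; data as % activity vs DMSO (100%), IC50 from curve fit. Complex 50 nM, RBD reagent 75 nM; compound 30-0.005 μM, 3-fold.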

[7] = KRAS WT, GppNHp-loaded, class symbols
[8] = KRAS G12D, GppNHp-loaded, class symbols
[9] = Homo sapiens, SW-620, SW620 (KRAS G12V) cells
[10] = Homo sapiens, SW-620, SW620 (KRAS G12V) cells, pERK HTRF, class symbols
[11] = KRAS G12V, GppNHp-loaded, class symbols
[12] = KRAS G12R, GppNHp-loaded, class symbols
[13] = Homo sapiens, SW-620, SW620 (KRAS G12V) cells, pERK HTRF
[14] = KRAS WT, GppNHp-loaded, Table 11
[15] = KRAS G12D, GppNHp-loaded, Table 11
[16] = KRAS G12V, GppNHp-loaded, Table 11
[17] = KRAS G12R, GppNHp-loaded, Table 11

T4 sequence (P01116 1-169 isoform P01116-2 G12R): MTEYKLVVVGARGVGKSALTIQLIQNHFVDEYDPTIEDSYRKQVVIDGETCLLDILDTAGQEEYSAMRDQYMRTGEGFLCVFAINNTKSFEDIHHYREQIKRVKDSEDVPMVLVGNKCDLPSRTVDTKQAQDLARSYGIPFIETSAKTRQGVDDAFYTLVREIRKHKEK
T5 sequence (P01116 2-169 isoform P01116-2 G12V): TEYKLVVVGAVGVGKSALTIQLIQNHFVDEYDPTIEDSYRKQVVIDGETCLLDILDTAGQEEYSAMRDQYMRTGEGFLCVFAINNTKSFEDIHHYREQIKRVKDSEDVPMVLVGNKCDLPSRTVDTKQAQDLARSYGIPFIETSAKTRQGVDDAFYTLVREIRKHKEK
T3 sequence (P01116 1-169 isoform P01116-2 G12V): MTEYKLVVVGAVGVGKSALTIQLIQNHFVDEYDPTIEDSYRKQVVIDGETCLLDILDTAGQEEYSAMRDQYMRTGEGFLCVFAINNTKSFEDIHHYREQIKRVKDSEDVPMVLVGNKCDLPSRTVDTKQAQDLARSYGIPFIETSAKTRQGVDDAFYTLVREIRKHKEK
T2 sequence (P01116 1-169 isoform P01116-2 G12D): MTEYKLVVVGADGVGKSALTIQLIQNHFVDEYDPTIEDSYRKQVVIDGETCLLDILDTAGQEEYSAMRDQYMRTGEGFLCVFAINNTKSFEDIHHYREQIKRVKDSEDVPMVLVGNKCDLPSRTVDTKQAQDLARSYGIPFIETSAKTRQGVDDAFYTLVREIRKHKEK
T1 sequence (P01116 1-169 isoform P01116-2): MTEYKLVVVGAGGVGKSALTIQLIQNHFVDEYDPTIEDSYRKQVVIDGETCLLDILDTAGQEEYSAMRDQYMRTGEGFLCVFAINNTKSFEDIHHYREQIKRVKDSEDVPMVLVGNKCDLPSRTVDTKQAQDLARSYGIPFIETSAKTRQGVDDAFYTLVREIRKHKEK

SMILES | IC50 [1, 7] [µM] | IC50 [2, 8] [µM] | IC50 [3, 9] [µM] | IC50 [3, 10] [µM] | IC50 [4, 11] [µM] | IC50 [5, 12] [µM] | IC50 [6] [µM] | IC50 ([1]; KRAS WT-GppNHp/RAF1 RBD HTRF) [µM] | IC50 ([2]; KRAS G12D-GppNHp/RAF1 RBD HTRF) [µM] | IC50 [3, 13] [µM] | IC50 ([4]; KRAS G12V-GppNHp/RAF1 RBD HTRF) [µM] | IC50 ([5]; KRAS G12R-GppNHp/RAF1 RBD HTRF) [µM] | IC50 ([3]; SW620 (KRAS G12V) cells) [µM] | IC50 ([3]; SW620 (KRAS G12V) cells, pERK HTRF, class symbols) [µM] | IC50 [1, 14] [µM] | IC50 [2, 15] [µM] | IC50 [4, 16] [µM] | IC50 [5, 17] [µM]
CCN1C[C@@H](N(C)c2nc(OC[C@@]34CCCN3C[C@H](F)C4)nc3c(F)c(-c4ccc(F)c5sc(N)c(C#N)c45)c(C(F)(F)F)cc23)CC1=O (atropisomer, axis not shown) [Compound 636] | < 0.1 | < 0.1 | < 0.1 | < 0.1 | < 0.1 | < 0.1 | 0.1 to 1 |  |  |  |  |  |  |  |  |  |  | 
CCN(c1nc(OC[C@@]23CCCN2C[C@H](F)C3)nc2c(F)c(-c3ccc(F)c4sc(N)c(C#N)c34)c(C(F)(F)F)cc12)[C@H]1CCN(C(=O)C2CC2)C1 [Compound 331] |  |  | < 0.1 |  |  |  | 0.1 to 1 | 0.1 to 1 | < 0.1 | < 0.1 | 0.1 to 1 | < 0.1 |  |  |  |  |  | 
CCN(c1nc(OC[C@@]23CCCN2C[C@H](F)C3)nc2c(F)c(-c3ccc(F)c4sc(N)c(C#N)c34)c(C(F)(F)F)cc12)[C@H]1CCN(C(=O)[C@@H]2CCO2)C1 (atropisomer, axis not shown) [Compound 603] | < 0.1 | < 0.1 | < 0.1 | < 0.1 | < 0.1 | < 0.1 | ≤ 0.1 |  |  |  |  |  |  |  |  |  |  | 
CCN(c1nc(OC[C@@]23CCCN2C[C@H](F)C3)nc2c(F)c(-c3ccc(F)c4sc(N)c(C#N)c34)c(C(F)(F)F)cc12)[C@H]1CCN(C(=O)N2CC(F)C2)C1 (atropisomer, axis not shown) [Compound 606] | < 0.1 | < 0.1 | < 0.1 | < 0.1 | < 0.1 | < 0.1 | ≤ 0.1 |  |  |  |  |  |  |  |  |  |  | 
CCN(c1nc(OCC23CCCN2CC(F)C3)nc2c(F)c(-c3ccc(F)c4sc(N)c(C#N)c34)c(C(F)(F)F)cc12)C1CC(C)N(C(=O)C2CC2(F)F)C1 (stereo not shown) [Compound 732] | 0.1 to 1 | < 0.1 |  |  | < 0.1 | < 0.1 | 0.1 to 1 |  |  |  |  |  | < 0.1 | < 0.1 |  |  |  | 
CCN(c1nc(OC[C@@]23CCCN2C[C@H](F)C3)nc2c(F)c(-c3ccc(F)c4sc(N)c(C#N)c34)c(C(F)(F)F)cc12)[C@@H]1CCN(C(C)=O)C1 [Compound 268] |  |  | < 0.1 |  |  |  | 0.1 to 1 |  |  | < 0.1 |  |  |  |  | < 0.1 | < 0.1 | 0.1 to 1 | < 0.1
N#Cc1c(N)sc2c(F)ccc(-c3c(C(F)(F)F)cc4c(N5CCCOCC5)nc(OC[C@@]56CCCN5C[C@H](F)C6)nc4c3F)c12 [Compound 232] |  |  | < 0.1 |  |  |  | 0.1 to 1 |  |  | < 0.1 |  |  |  |  | 0.1 to 1 | < 0.1 | 0.1 to 1 | 0.1 to 1
CCN(c1nc(OC[C@@]23CCCN2C[C@H](F)C3)nc2c(F)c(-c3ccc(F)c4sc(N)c(C#N)c34)c(C(F)(F)F)cc12)[C@H]1C[C@@H](C)N(C(=O)C2COC2)C1 (atropisomer, axis not shown) [Compound 586] | < 0.1 | < 0.1 | < 0.1 | < 0.1 | 0.1 to 1 | < 0.1 | 0.1 to 1 |  |  |  |  |  |  |  |  |  |  | 
CCN(c1nc(OC[C@@]23CCCN2C[C@H](F)C3)nc2c(F)c(-c3ccc(F)c4sc(N)c(C#N)c34)c(C(F)(F)F)cc12)[C@H]1C[C@H](C)N(C(=O)N2CC(OC)C2)C1 (atropisomer, axis not shown) [Compound 764] | < 0.1 | < 0.1 | < 0.1 | < 0.1 | < 0.1 | < 0.1 | ≤ 0.1 |  |  |  |  |  |  |  |  |  |  | 
CCN(c1nc(OC[C@@]23CCCN2C[C@H](F)C3)nc2c(F)c(-c3ccc(F)c4sc(N)c(C#N)c34)c(C(F)(F)F)cc12)[C@H]1CCN(C(C)=O)C1 [Compound 262] |  |  | < 0.1 |  |  |  | 0.1 to 1 |  |  | < 0.1 |  |  |  |  | < 0.1 | < 0.1 | < 0.1 | < 0.1
